According to patent US10117940B2, “DPI formulation containing sulfoalkyl ether cyclodextrin” (CyDex Pharmaceuticals, Inc., priority 2004, dated 2018):

Columns and labels:
[1] = Electrostatic charge measurement with Faraday cage apparatus; format: physicochemical; settings: for Electrostatic charge of active agent, Approx. Magnitude: exemplary active agent of the charge range
Method: Determination of the electrostatic charge of the SAE-CD-containing carrier and the active agent-containing composition.
Electrostatic charge measurements were performed using a Faraday Cage apparatus that determines the potential difference changes as a function of time during powder flow onto a conducting surface. Samples were weighed and transferred from original containers to wax coated weighing papers. These were mounted to a vibrating spatula (set at maximum vibration level). The angle of the spatula was set at a constant angle (30 degrees). Powder was dispensed to the Faraday cage that was connected to a electrometer. Data collection was performed using Windaq interface and a PC computer sampling at 240 Hz. The area under the electrostatic dissipation curve was determined (Voltage×time) and charge (nC/g) was calculated from the known resistance of the setup.

healthy volunteers = settings: nasal spray in aqueous sulfobutylether-beta-cyclodextrin buffer solution; cited from earlier work
rats = settings: inhaled aerosol composition, SBE-CD present alone; cited from earlier work

| Compound | Polarity and magnitude of electrostatic charge (in words) [1] | Electrostatic charge of active agent, Approx. Magnitude [1] | Electrostatic charge ([1]; micronized for inhalation) | Side effects (healthy volunteers) | Toxicity (rats) |
| --- | --- | --- | --- | --- | --- |
| CC(C)(C)NCC(O)c1ccc(O)c(CO)c1 (stereo not drawn) [Albuterol, alpha^1-(((1,1-dimethylethyl)amino)methyl)-4-hydroxy-1,3-benzenedimethanol] | high positive charge | >4 nC/g | – | – | – |
| O=C(O)c1cc(=O)c2c(OCC(O)COc3cccc4oc(C(=O)O)cc(=O)c34)cccc2o1 [Na Cromolyn, sodium cromolyn] | electroneutral | −2 to −0.5 nC/g | −1 to −1.7 nC/g | – | – |
| Cc1ncc2n1-c1ccc(Cl)cc1C(c1ccccc1F)=NC2 [midazolam] | – | – | – | No serious side effects | – |
| sulfobutyl ether derivative of beta cyclodextrin [SBE-CD] | – | – | – | – | non-toxic |
